Assay results published in publication PMC12067438 (Journal of Medicinal Chemistry, 2025).

Tests used:
[1] = system: global proteome of H1792 SMARCA4-WT cell line; test: Quantitative TMT mass spectrometry of global proteome; assay type: cell-based, human; settings: 100 nM YDR1 48 h, 20 nM YD54 24 h
YAP1 = YAP1 phosphorylation immunoblot in H322 cells; assay type: cell-based, human; settings: H322 SMARCA4 mutant cells, 96 h; 1 µM YDR1, 0.1 µM YD54
[2] = Mouse liver microsomal stability assay; assay type: in vitro ADME; settings: for remaining (T = 60 min): mouse microsomal assay, with NADPH; for CLint scaled at 1 h / half-life at 1 h / microsomal CLint at 1 h: mouse, liver microsomes
[3] = Human liver microsomal stability assay; assay type: in vitro ADME; settings: for remaining (T = 60 min): with NADPH
[4] = Plasma pharmacokinetics after single oral or intraperitoneal dose; assay type: in vivo, mouse; settings: for Oral bioavailability (in words): 25 mg/kg oral, mice
[5] = system: H2023 xenograft model (SMARCA4 mutant); test: H2023 xenograft antitumor efficacy; assay type: in vivo, mouse; settings: 5 mg/kg once daily, 19 days
[6] = system: HCC515 xenograft model (SMARCA4 mutant); test: HCC515 xenograft antitumor efficacy; assay type: in vivo, mouse; settings: 5 mg/kg once daily, 19 days, 1% Tween 80 formulation
[7] = system: H2030 xenograft model (SMARCA4 mutant); test: H2030 xenograft antitumor efficacy; assay type: in vivo, mouse; settings: 5 mg/kg once daily, 17 days, 1% Tween 80 formulation
SMARCA4 = SMARCA4 (Mus musculus, UniProt Q3TKT4); test: PK/PD study: SMARCA4 in spleen by Western blot; assay type: in vivo; settings: C57BL/6 and Crbn I391V mice, compared to SMARCA2
Chain of SMARCA4 (Q3TKT4 whole entry): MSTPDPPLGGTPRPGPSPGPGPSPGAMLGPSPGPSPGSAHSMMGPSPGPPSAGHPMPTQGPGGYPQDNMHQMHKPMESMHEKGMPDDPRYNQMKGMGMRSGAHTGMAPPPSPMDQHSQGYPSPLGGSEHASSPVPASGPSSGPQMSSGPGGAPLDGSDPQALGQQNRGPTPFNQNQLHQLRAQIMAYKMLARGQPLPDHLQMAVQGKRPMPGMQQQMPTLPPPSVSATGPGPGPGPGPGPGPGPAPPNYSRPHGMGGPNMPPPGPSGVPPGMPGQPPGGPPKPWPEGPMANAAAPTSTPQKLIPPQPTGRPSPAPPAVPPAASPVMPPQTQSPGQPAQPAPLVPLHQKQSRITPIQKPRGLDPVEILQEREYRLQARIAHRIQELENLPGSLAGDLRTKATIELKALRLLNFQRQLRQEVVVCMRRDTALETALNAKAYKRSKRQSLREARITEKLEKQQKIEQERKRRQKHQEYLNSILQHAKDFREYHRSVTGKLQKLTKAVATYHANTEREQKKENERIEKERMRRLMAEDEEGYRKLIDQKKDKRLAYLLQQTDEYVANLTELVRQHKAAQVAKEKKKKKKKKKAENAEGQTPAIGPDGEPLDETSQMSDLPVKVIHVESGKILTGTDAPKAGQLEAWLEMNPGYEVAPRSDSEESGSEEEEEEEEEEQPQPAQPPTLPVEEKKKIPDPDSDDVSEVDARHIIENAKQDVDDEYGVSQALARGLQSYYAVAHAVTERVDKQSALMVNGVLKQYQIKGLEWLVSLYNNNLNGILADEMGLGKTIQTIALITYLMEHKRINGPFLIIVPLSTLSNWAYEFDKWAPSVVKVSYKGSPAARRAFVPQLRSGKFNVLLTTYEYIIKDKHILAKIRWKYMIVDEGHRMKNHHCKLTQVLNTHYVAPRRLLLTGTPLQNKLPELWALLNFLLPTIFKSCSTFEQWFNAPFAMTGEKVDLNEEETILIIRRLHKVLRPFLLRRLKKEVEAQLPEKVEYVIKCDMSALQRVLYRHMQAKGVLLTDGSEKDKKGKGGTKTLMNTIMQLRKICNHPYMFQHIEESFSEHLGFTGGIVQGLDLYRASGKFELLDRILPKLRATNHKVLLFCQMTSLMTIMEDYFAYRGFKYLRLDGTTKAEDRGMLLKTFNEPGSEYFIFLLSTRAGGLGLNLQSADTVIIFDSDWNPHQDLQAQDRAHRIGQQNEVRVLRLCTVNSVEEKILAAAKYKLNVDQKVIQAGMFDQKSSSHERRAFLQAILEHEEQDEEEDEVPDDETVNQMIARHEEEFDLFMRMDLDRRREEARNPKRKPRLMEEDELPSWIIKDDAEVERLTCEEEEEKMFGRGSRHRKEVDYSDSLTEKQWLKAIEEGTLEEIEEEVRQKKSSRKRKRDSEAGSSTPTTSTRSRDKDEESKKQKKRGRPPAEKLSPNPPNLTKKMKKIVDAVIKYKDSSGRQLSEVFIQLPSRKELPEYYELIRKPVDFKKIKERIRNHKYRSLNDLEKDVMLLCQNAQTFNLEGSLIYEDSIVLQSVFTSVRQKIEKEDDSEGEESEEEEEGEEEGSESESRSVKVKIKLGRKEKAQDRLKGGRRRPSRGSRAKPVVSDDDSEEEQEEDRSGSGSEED

SMARCA2 = SMARCA2 (Homo sapiens, UniProt P51531); test: SMARCA2 protein levels in xenograft tumors by Western blot; assay type: in vivo; settings: H1568 xenograft efficacy study, 40 mg/kg once daily, 13 days
Chain of SMARCA2 (P51531 whole entry): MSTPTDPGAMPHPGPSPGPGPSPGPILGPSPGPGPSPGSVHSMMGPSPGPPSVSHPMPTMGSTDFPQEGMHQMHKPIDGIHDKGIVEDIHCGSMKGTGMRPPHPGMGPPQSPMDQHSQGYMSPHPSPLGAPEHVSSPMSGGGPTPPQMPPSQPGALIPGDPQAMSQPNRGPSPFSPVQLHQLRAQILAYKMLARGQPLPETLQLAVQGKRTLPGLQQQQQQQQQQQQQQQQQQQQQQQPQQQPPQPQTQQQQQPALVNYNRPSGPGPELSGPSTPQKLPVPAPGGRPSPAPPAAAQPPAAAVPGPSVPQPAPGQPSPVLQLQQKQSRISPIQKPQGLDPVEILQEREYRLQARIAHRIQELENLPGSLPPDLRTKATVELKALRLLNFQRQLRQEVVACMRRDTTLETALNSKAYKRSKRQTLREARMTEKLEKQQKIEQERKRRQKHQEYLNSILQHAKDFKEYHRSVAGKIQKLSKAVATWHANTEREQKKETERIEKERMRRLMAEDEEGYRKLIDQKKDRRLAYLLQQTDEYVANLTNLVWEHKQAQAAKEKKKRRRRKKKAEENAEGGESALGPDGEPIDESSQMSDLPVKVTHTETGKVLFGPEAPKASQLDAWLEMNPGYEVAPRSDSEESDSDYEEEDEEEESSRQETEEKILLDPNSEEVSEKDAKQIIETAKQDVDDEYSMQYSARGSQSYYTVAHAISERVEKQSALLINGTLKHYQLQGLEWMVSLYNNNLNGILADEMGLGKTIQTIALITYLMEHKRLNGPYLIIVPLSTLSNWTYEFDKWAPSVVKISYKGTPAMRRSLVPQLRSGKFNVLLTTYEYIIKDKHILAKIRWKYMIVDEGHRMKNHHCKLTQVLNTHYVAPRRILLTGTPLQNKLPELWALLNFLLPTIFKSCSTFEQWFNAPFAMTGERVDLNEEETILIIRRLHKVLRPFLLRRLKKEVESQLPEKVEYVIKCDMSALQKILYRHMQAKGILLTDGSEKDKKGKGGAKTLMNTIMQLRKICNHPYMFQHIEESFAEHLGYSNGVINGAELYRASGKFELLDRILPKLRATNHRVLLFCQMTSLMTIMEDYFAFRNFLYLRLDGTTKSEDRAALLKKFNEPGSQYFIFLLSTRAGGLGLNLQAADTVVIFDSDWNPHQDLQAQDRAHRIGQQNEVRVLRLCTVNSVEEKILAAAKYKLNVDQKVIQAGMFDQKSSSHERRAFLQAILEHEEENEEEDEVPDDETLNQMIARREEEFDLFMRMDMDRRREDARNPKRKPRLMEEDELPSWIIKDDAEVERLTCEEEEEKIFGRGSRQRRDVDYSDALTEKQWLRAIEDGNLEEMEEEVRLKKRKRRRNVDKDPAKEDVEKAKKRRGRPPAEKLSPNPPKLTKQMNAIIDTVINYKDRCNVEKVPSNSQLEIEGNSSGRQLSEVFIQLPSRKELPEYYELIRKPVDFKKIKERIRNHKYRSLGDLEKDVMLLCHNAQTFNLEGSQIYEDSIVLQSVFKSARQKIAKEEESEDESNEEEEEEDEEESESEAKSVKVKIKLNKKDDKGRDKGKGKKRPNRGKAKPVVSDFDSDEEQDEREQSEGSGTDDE

[8] = 21-day tolerability in mice; assay type: in vivo, mouse
[9] = system: H1568 xenograft model (SMARCA4 mutant); test: H1568 xenograft antitumor efficacy; assay type: in vivo, mouse; settings: 40 mg/kg once daily, 13 days
ERK = test: pERK immunoblot in H2030 cells; settings: sotorasib 0.5 µM, YDR1 or YD54 1.25 µM, 72 hours (YDR1), 48 hours (YD54)

Row | SMILES | SMARCA4 level in TMT proteomics [1] | Phosphorylation of YAP1 at S109 (YAP1) | Phosphorylation of YAP1 at S127 (YAP1) | remaining (T = 60 min) [2] | CLint scaled at 1 h [2] | half-life at 1 h [2] | microsomal CLint at 1 h [2] | Clearance class in human microsomal assays ([3]; human microsomal assay) | remaining (T = 60 min) ([3]; human microsomal assay) | CLint scaled at 1 h ([3]; human, liver microsomes) | Oral bioavailability (in words) [4] | also measured
1 | Nc1nnc(-c2ccccc2O)cc1N1CCN(Cc2ccc(N3CCN(CCOc4cccc5c4C(=O)N(C4CCC(=O)NC4=O)C5=O)CC3)c(F)c2)CC1 (stereo not drawn) [YD54] | minimally altered | drastic increase | potent increase | 0.414 | 119 mL/min/kg | 45.9 min | 30.2 µL/min/mg | moderate clearance | 0.3234 | 35.8 mL/min/kg | orally bioavailable | half-life at 1 h ([3]; human, liver microsomes, T1/2, human microsomal assay): 34.9 min; reduction in body weight compared to controls [5]: < 10%; reduction in body weight compared to controls [6]: < 20%; reduction in body weight compared to controls [7]: < 20%
2 | Nc1nnc(-c2ccccc2O)cc1N1CCN(Cc2ccc(N3CCC(CN4CCN(c5ccc6c(c5)C(=O)N(C5CCC(=O)NC5=O)C6=O)CC4)CC3)c(F)c2)CC1 (stereo not drawn) [YDR1] | minimally altered | drastic increase | potent increase | 0.4998 | 91.9 mL/min/kg | 59.7 min | 23.2 µL/min/mg | slow clearance | 0.4743 | 21.5 mL/min/kg | robust oral bioavailability | T1/2 ([3]; human microsomal assay): 58.024 min; microsomal CLint at 1 h ([3]; human, liver microsomes): 23.9 µL/min/mg; half-life ([4]; CD-1, mouse, plasma, oral, 25 mg/kg): > 1440 min; degradation of SMARCA4 in spleen (SMARCA4): only modestly degraded; degradation of SMARCA2 in tumors (SMARCA2): about 50%; Body weight and signs of toxicity ([8]; daily treatment up to 80 mg/kg for 21 days): minimal body weight loss and no obvious signs of toxicity or morbidity; Tolerability ([8]; daily treatment with increasing doses up to 80 mg/kg for 21 days): well tolerated; Tolerability in efficacy study [9]: well tolerated with no change in body weight; reduction in body weight compared to controls [9]: < 10%
3 | C=CC(=O)N1CCN(c2nc(=O)n(-c3c(C)ccnc3C(C)C)c3nc(-c4c(O)cccc4F)c(F)cc23)[C@@H](C)C1 [sotorasib] | – | – | – | – | – | – | – | – | – | – | – | phosphorylation of ERK (ERK): robustly reduced phosphorylation of ERK
